Data on 89 compounds can be found in a melting point compilation (Tetko et al.; mined from patent text by program, amines drawn as free bases though some values may be those of a salt).

With `Cc1c(C#N)sc2nc(Cc3ccccc3)nc(N3CCOCC3)c12`, the melting point lay within 88 to 90 °C.
The value for `CN1N=C(c2ccccc2)CC1=O` was 211 °C; that for `Cc1nc2cc(C(=O)NC3CC3)c(NC(=O)c3cc(C(F)(F)F)nn3-c3ncccc3Cl)c(Cl)c2n1C` was 233 to 235 °C.
To `CSc1cc(C)nc(SC)c1NC(=O)CCCBr` belongs 139 to 140 °C; to `COc1ccc(CCc2ccc(N)cc2)cc1OC`, 115 to 116 °C.
Take `COC(=O)CCCCC(=O)Nc1c(I)c(C(=O)O)c(I)c(N(C)C(C)=O)c1I`: the melting point lay in the range of 229 to 232 °C.
`Cc1cc(Cc2ccc(NC(=O)N(C)C)cn2)n(C)c1C(=O)c1ccc(Cl)cc1` yielded a melting point of 227 to 230 °C.
In the case of `COc1ccc(Br)c(C=O)c1OC`, the melting point is 92 to 93 °C.
To `CCOC(=O)c1ccc(CCCCN2C(=O)c3ccccc3C2=O)cc1` belongs 85 to 86 °C.
In turn, `COc1ccc(-c2cc3cc(OC)cc(C(O)C(F)(F)F)c3o2)cc1` (centres undefined) displayed a melting point of 120 to 122 °C.
`CCCNC(C)=NC(=Nc1ccccc1)N1CCOCC1`: the melting point lay within 101 to 103 °C.
To `CC(C)(C)c1cc(C(=O)ON(Cc2ccccc2)Cc2ccccc2)cc(C(C)(C)C)c1O` belongs 90 to 92 °C; to `Cn1ncc(N)c1C(N)=O`, 158 to 160 °C.
The value for `Clc1ccc2c(c1)N(c1ncnc3c(Cl)cccc13)CC2` was 190 °C.
To `CCC(CC)C(=C(C#N)c1nc[nH]n1)S(=O)(=O)c1ccc(C)cc1` belongs 78 to 87 °C.
The compound `c1ccc(COc2cc(-c3ccccn3)nc(-c3cccc(-c4ccccc4)n3)c2)cc1` had a melting point of 182 °C.
To `Cc1cc(C(=O)c2ccc(O)cc2)ccc1[N+](=O)[O-]` belongs 146 to 148 °C; to `OCCOc1csc2ccccc12`, 55 to 56 °C; to `CN1C(=O)CN(CCC#N)C1=O`, 53 °C.
As to `O=C(O)CCN(O)CCC(=O)O`, the melting point was 148 to 149 °C.
Compound `O=C(OCCOc1ccc2ncnn2n1)N1CCN(C(c2ccccc2)c2ccccc2)CC1` displayed a melting point of 157 to 159 °C.
To `CC(C)(C)OC(=O)NCCN(CCC12CC3CC(CC(C3)C1)C2)C(=O)NCCCc1ccncc1` belongs 158 to 160 °C; to `COc1ccc(CC(=O)O)c(C(C)=O)c1`, 115 to 116 °C.
To `C[C@H]1c2cc(F)ccc2-c2ccccc2N1S(=O)(=O)c1ccc(OS(N)(=O)=O)cc1` belongs 166 to 167 °C; to `CCOC(=O)c1cn(-c2nc(NCc3ccc(OC)cc3)c(Cl)cc2F)c2c(Cl)c(F)c(F)cc2c1=O`, 168 to 171 °C; to `Nc1nc(-c2cccc3ccc(Br)cc23)co1`, 189 to 190 °C.
On to `CCCCc1nc(C(C)(C)O)c(C(=O)O)n1Cc1ccc(-c2ccccc2C(=O)C(=O)O)cc1`, for which the melting point is 165 to 170 °C.
`CC(C)c1ccc(NC(=O)C2CCCc3ccccc32)cn1` (centres undefined): the melting point worked out at 156 °C.
To `O=[N+]([O-])N=C1N(Cc2ccc(Cl)nc2)CCN1[N+](=O)[O-]` belongs 158 °C.
Regarding `O=C1CCC2(CC1)CCC(O)CC2`, the melting point fell in the range of 65 to 67 °C.
The value for `Nc1sc2c(c1C(=O)c1ccsc1)CCN(Cc1ccccc1)C2` was 131 to 133 °C; that for `COc1ccnc(CCc2nc3cc(-c4ccncc4)cnc3[nH]2)c1` was 237 to 238 °C; that for `COc1cc2c(c(OC)c1OC)-c1cc3c(cc1COC2)OCO3` was 154 to 156 °C.
The value for `CC(C)(C(=O)c1ccc(OCC(=O)O)cc1)N1CCN(c2ccncc2)CC1` was 278 to 279 °C.
The value for `CC(c1ccc(COCc2ccccc2)o1)N(O)C(N)=O` (centres undefined) was 121 °C.
As to `Cc1nc(Nc2ccccc2)sc1-c1ccc(Cl)c([N+](=O)[O-])c1`, the melting point was 162 to 165 °C.
To `c1cc(OCCCNCC2COc3cc4c(cc3O2)OCO4)c2cccnc2c1` (centres undefined) belongs 140 to 145 °C.
Consider `O=C(CCc1cccnc1)NCCCCC1CCN(S(=O)(=O)c2ccc3ccccc3c2)CC1`, for which the melting point lay within 103 to 105 °C.
As to `Cc1oc(-c2ccc(F)cc2)nc1COc1cccc(Cn2oc(=O)[nH]c2=O)c1`, the melting point lay in the range of 163 to 164 °C.
The value for `NCCOc1ccc(C(=C(c2ccc(F)cc2)C(F)(F)F)c2ccccc2)cc1` was 83 to 89 °C; that for `CCOC(=O)C(=O)Nc1ccc(Cl)c(C(F)(F)F)c1` was 128 to 130 °C; that for `COc1ccc2cc([C@H](C)C(=O)OCCOc3ccc(OCCO[N+](=O)[O-])cc3)ccc2c1` was 67 to 69 °C.
Compound `COc1ccc(-c2ccc(C#N)cn2)cc1C=O` yielded a melting point of 197 to 198 °C.
To `C=CCn1cnc2c1c(=O)n(CCC(C)C(C)=O)c(=O)n2C` (centres undefined) belongs 73 to 74 °C; to `CC(C)(C)c1ccc(Oc2ccc(NC(=O)c3ccccc3C(c3ccc(O)cc3)c3ccc(O)cc3)cn2)cc1`, 121 to 125 °C; to `CN(C)CC(=O)OCc1ccc2c(c1)-c1n[nH]c(=O)c3cccc(c13)O2`, 227 to 230 °C.
To `OCc1cccc2nc(N3CCCCC3)sc12` belongs 107 to 108 °C; to `COC(=O)CCCC#Cc1cc(Cl)ccc1NS(=O)(=O)c1cn(C)cn1`, 76 to 79 °C.
Take `CN(C)C(=O)c1ccc(-c2ccc(Cl)cc2)o1`: the melting point was in the range of 101 to 102 °C.
To `CCOC(=O)N1CCC(Nc2nc3ccccc3n2Cc2ccccn2)CC1` belongs 162 °C.
To `CCc1cc(C[C@H](NC(=O)c2c(Cl)cccc2Cl)C(=O)O)ccc1-c1ccccc1OC` belongs 105 to 107 °C.
To `CCCCC(CC)COc1ccc(-c2c3ccc(O)cc3c(-c3ccc(OCC(CC)CCCC)cc3)c3ccc(O)cc23)cc1` (centres undefined) belongs 195 to 197 °C; to `Cc1ccc(N2C(=O)C(O)=C(C(=O)c3ccc(-c4ccccc4)cc3)C2c2ccc(OC(F)(F)F)cc2)nn1` (centres undefined), 226 to 232 °C.
In turn, `OCC(O)CSSc1nc2ccccc2s1` (centres undefined) returned a melting point of 115 to 120 °C.
As to `C[C@@H](S[C@H]1CC[C@H](/C=C/c2ccc(Cl)cc2)CC1)[C@](O)(Cn1cncn1)c1ccc(F)cc1F`, the melting point fell in the range of 64 to 66 °C.
To `CC#Cc1c(-c2ccc(S(C)(=O)=O)cc2)cnn(-c2ccc(F)c(F)c2)c1=O` belongs 149 to 150 °C.
Consider `O=c1[nH]ncn1-c1ccc(I)cc1`, for which the melting point was determined as 258 °C.
`CC(=O)Nc1ncc(SC#N)s1`: the melting point worked out at 212 °C.
Take `Cc1cc2oc(=O)c(NC(=O)Nc3ccc(F)cc3F)c(-c3ccccc3C)c2cc1C`: the melting point is 215 to 217 °C.
On to `N#Cc1ccc(-c2ccc(-c3nc(N)nc(N)n3)cc2)cc1`, for which the melting point is > 260 °C.
With `Nc1ccc(C(=O)NCCNC(=O)c2ccc(N)cc2)cc1`, the melting point fell in the range of 294 to 295 °C.
To `CCOC(=O)c1cc(Oc2ccc(C(F)(F)F)cc2Cl)ccc1[N+](=O)[O-]` belongs 156 to 160 °C; to `CC1(CNC(=O)C(F)(F)F)CN(c2cc3c(cc2F)c(=O)c(C(=O)O)cn3C2CC2)C1`, 265 to 272 °C; to `COc1cccc2oc(-c3ccc(C(F)(F)F)cc3)cc(=O)c12`, 190 to 191 °C.
`CC(C)(C)OC(=O)CNc1nc(NCc2ccc(NC(=O)c3ccc(F)cc3)cc2)c2ccccc2n1` showed a melting point of 96 °C.
The value for `CCCCN(CCCC)CCCNC(=O)c1ccc2oc3ccc(C(=O)NCCCN(CCCC)CCCC)cc3c(=O)c2c1` was 89 to 92 °C.
The value for `COC(=O)c1c(NCC(C)C)n[nH]c1C` was 100 to 103 °C; that for `NC(=O)c1ncn(C2OC(COC(=O)c3ccccc3)C(O)C2O)n1` (centres undefined) was 182 to 184 °C; that for `C=Cc1cc(CNC(=O)NCc2ccc(C(C)(C)C)cc2)cc(C)c1NS(C)(=O)=O` was 105 to 107 °C.
Compound `CN(C)CCCCCCOc1ccc(C(=O)c2ccc(F)cc2)cc1` registered a melting point of 37 to 38 °C.
In turn, `CN(Cc1cc2cc(Cl)ccc2o1)C1CCN(c2ccc(OC[C@@]3(C)Cn4cc([N+](=O)[O-])nc4O3)cc2)CC1` had a melting point of 207 to 210 °C.
The value for `COCCCn1nnnc1-c1ccc(O)c(Br)c1O` was 174 to 175 °C; that for `CNc1ncnc2c1ncn2C1OC(CO)C(O)C1O` (centres undefined) was 202 °C; that for `NC(/C=C(/F)P(=O)(O)O)CCc1ccc(Sc2cccc(OCc3ccccc3)c2)cc1Cl` (centres undefined) was 285 to 288 °C.
The value for `CC(C)(COc1ccc(CC2SC(=O)NC2=O)cc1)c1ccccc1` (centres undefined) was 107 to 108 °C; that for `COc1ccc(OCc2ccc3ccccc3n2)cc1C1(c2ccccc2)CC2CCC1C2` (centres undefined) was 138 to 139 °C.
The value for `CN1C(=O)CN(c2cccc(I)c2)NC1=O` was 180 °C; that for `CCCCCCCCCCCCCCCCCNC(=O)Oc1cccc(N)c1` was 69 to 75 °C; that for `Cc1cn2nc(Cl)cc(C)c2n1` was 109 to 110 °C.
`O=C(Nc1cccc(F)n1)c1cc(-c2ccc(O)cc2)nc2ccccc12`: the melting point is 210 to 212 °C.
The value for `O=[N+]([O-])c1ccc(Cl)c(N=C2NCCCN2)c1` was 189 to 191 °C; that for `CCCCc1nc(SC)c(C(=O)OCC)n1Cc1cccc(-c2ccccc2S(=O)(=O)NC#N)c1` was 118 °C; that for `COc1cc(C2(OC)CCOCC2)ccc1OCc1ccc2ccccc2c1` was 129 °C.
To `O=C(Nc1cccc(S(=O)(=O)N2CCOCC2)c1)c1cnn2c(C(F)F)cc(-c3ccc(Cl)c(Cl)c3)nc12` belongs 231 °C; to `COc1cc(OC)cc(C(=O)NC(NC(=NC#N)Nc2cccnc2OC)C(C)(Cl)Cl)c1` (centres undefined), 198 to 199 °C; to `C#CC(=O)NCc1ccccc1`, 165 to 167 °C.
The value for `CCCCSc1ccc2c3c(cccc13)C(=O)N2` was 126 to 129 °C; that for `CC(C)c1[nH]c(C(=O)Nc2ccc(C(=O)O)cc2)c(C(C)C)c1C(C)C` was > 300 °C; that for `CC(=O)NCCC1CCc2ccc3nc(C)oc3c21` (centres undefined) was 93 to 95 °C.
